Earlier results on one molecule are cited in patent publication US20020022622A1, “Thiazole, imidazole and oxazole compounds and treatments of disorders associated with protein aging” (priority 2000, published 2002).

The structures appear in SMILES notation.

Data set [1] concerns aortic wall protein cross-linking. The conditions noted are these: diabetic rats.
In data set [2] the test system is immunoglobulin trapping in the kidney. The conditions noted are these: in vivo.
Data set [3] deals with glomerular basement membrane thickness. To be noted: streptozotocin-diabetic rat model.
The next data set concerns red blood cells. The conditions noted are these: in vivo.

Turning to `N=C(N)NN` [aminoguanidine], the “aortic wall protein cross-linking” value in data set [1] was “diminishes”. Further, the “immunoglobulin trapping in the kidney” value in data set [2] is recorded as “reduction”. The “increased glomerular basement membrane thickness” value in data set [3] is “prevented”. The “diabetes-induced changes in the deformability of red blood cells” value with red blood cells was “prevent”.
